For one assay, the target named is GCN5L2(h) (Homo sapiens, UniProt Q92830). Briefly: Epigenetic enzyme assay, Histone acetyltransferases (HATs). The note with it: 10 μM; read-out: % Inhibition of Control Values. Format: biochemical.
For a further assay, the target named is T1, Chemokine CCR2B (Homo sapiens, UniProt P41597).
T1 construct: expressed in transfected cells; host or cells: CHO-K1 cells
T1 sequence (P41597 1-360 isoform P41597-2): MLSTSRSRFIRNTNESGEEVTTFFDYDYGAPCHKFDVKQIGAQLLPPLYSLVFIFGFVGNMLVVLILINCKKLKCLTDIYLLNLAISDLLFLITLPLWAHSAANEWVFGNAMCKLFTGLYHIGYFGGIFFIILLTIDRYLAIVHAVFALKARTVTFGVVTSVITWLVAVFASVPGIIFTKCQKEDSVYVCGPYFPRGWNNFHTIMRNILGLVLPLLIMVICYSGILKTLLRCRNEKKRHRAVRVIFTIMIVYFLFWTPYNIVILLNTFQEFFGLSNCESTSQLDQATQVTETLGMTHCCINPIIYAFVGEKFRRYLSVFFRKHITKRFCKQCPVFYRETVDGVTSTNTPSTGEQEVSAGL
Briefly: Chemokine CCR2B radio ligand binding. Particulars: assay year 2015, read-out: % Control Response. As to the method: The in vitro pharmacological studies were conducted by Eurofins PanLab (Taiwan) using the parameters shown in Table 13 with respect to appropriate literature references.

The target in another assay is T2, PRMT4 (h) (Homo sapiens, UniProt Q86X55).
T2 sequence (Q86X55 1-608): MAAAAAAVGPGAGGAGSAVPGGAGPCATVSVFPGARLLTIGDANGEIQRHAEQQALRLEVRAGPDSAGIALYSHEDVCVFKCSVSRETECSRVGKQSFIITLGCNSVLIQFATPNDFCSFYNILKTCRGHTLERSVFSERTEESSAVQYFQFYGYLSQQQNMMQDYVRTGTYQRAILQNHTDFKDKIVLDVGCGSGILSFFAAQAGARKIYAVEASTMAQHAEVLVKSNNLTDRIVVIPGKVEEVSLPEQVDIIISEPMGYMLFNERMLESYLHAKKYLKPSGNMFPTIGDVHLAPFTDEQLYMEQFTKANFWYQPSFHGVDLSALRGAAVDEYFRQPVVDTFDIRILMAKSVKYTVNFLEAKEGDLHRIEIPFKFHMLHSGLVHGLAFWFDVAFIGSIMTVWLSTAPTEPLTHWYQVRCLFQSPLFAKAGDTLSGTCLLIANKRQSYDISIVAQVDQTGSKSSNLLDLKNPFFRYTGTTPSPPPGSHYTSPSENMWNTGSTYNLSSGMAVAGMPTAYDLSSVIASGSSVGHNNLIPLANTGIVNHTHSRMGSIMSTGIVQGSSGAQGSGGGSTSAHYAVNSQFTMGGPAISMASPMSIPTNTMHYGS
Briefly: Epigenetic enzyme assay, Methyltransferases (MTs). Format: biochemical. The note with it: for inhibition at 10 µM: read-out: % Inhibition of Control Values; for IC50: Table 11, inhibition/concentration-response curve.

SMILES strings stand for the structures.

In general, inhibition refers to the share of the control response that was lost under treatment. One may read the IC50 as the point on the concentration scale where inhibition reaches its midpoint. A lower IC50 goes with inhibition by little substance.

GCN5L2(h), sequence (Q92830 whole entry): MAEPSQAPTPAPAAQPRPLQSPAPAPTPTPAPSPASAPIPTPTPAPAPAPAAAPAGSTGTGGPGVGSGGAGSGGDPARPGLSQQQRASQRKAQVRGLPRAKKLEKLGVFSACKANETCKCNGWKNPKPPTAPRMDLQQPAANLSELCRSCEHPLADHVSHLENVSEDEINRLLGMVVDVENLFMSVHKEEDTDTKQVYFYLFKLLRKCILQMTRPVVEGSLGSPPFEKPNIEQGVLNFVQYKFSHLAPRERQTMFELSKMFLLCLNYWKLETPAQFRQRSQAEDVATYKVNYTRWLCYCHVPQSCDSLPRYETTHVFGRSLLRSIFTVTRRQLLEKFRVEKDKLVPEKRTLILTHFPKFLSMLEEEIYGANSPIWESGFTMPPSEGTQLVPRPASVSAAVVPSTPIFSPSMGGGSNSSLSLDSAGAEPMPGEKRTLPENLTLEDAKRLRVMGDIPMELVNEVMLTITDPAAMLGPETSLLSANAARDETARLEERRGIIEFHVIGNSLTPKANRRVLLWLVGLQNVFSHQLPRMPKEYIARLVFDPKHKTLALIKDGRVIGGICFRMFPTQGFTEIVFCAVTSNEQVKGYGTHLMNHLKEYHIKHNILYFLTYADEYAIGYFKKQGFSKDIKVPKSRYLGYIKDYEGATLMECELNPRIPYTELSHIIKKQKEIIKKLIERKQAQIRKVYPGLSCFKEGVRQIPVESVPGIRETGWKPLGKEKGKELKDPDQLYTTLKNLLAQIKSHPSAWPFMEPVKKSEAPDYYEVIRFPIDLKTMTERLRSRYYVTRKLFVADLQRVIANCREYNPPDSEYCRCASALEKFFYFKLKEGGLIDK

`CC(C)=CCC[C@H](CO)[C@@H]1CC[C@@H](C)c2c1cc(C)c(O)c2O` [Compound 1, 7,8,18-trihydroxyserrulat-14-ene]: the inhibition at 10 µM on GCN5L2(h) was found to be 11%. The remaining activity at 10 µM on Chemokine CCR2B was determined as 1%. On PRMT4 (h), the inhibition at 10 µM came out at 90% and the IC50 was determined as 4.7 µM.
As for `CC(C)=CCC[C@H](C)[C@@H]1CC[C@@H](C)c2c1cc(C)c(O)c2O` [Compound 4, 7,8-dihydroxyserrulat-14-ene], 4.7 µM corresponded to half-maximal inhibition against PRMT4 (h) (IC50). This counts as single-digit micromolar.
As for `CC(C)=CCC[C@@H]1COc2c(C)cc(O)c3c2[C@H]1CC[C@H]3C` [Compound 3, 5,18-epoxy-8-hydroxyserrulat-14-ene], the inhibition at 10 µM amounted to 1% at GCN5L2(h) and 77% at PRMT4 (h). In addition, the remaining activity at 10 µM on Chemokine CCR2B is -10%.
Turning to `CC(C)=CCC[C@@H]1C(O)Oc2c(C)cc(O)c3c2[C@H]1CC[C@H]3C` (stereo partly drawn) [Compound 2, 5,18-epoxyserrulat-14-en-8,18-diol], on GCN5L2(h), the inhibition at 10 µM was 5%. In addition, the remaining activity at 10 µM at Chemokine CCR2B was -23%. Moreover, at PRMT4 (h), the inhibition at 10 µM amounted to 84% and the half-maximal inhibitory concentration (IC50) was 5.4 µM.

The values above are taken from patent publication US11331299B2, “Medicinal use of serrulatane diterpenes” (The University of Sydney, priority 2016, dated 2022).
